{"source": "patent US20070203066A1", "about": "“Compositions and methods for inhibiting cellular proliferation” (priority 2005, published 2007)", "system": "HUVECs", "type": "cell-based", "settings": "HUVEC proliferation, bFGF at 10 ng/ml or VEGF at 5 ng/ml, 48 hours, BrdU incorporation; read-out: IC50 on HUVECs", "outline": "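Proliferation read-out: BrdU incorporation after 48-hour culture (37 ° C, 5% CO2) with graded peptide doses. Cells were in EBM with 2% FCS at 5,000 per well, driven by VEGF (5 ng/ml) or bFGF (10 ng/ml), added after ≥12-hour attachment.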", "note": "Non-standard residues stand in square brackets, D forms with d. No end group written: not given here. Ida = iminodiacetic acid linker, its two carboxyls bind the Lys side-chain amines of two peptides, giving a homodimer; Aib = CC(C)(N)C(=O)O", "data": [{"substance": "252 (Ac-ARRRRQRVAIIF[dK]; not fully specified (C-terminus); also: homodimer: side chain of Lys13 bound to an Ida linker) [compound 252]", "values": [{"measurement": "IC50", "result": "< 10", "unit": "µM"}]}, {"substance": "253 (Ac-ARRRRQRVAII[dF]K; not fully specified (C-terminus); also: homodimer: side chain of Lys13 bound to an Ida linker) [compound 253]", "values": [{"measurement": "IC50", "result": "< 10", "unit": "µM"}]}, {"substance": "255 (Ac-ARRRRQRVA[dI]IFK-NH2; not fully specified (residue 13); also: homodimer via Ida linker on Lys13 side chains) [compound 255]", "values": [{"measurement": "IC50", "result": "< 10", "unit": "µM"}]}, {"substance": "256 (Ac-ARRRRQRV[dA]IIFK; not fully specified (C-terminus); also: homodimer: side chain of Lys13 bound to an Ida linker) [compound 256]", "values": [{"measurement": "IC50", "result": "< 10", "unit": "µM"}]}, {"substance": "257 (Ac-ARRRRQR[dV]AIIFK; not fully specified (C-terminus); also: homodimer: side chain of Lys13 bound to an Ida linker) [compound 257]", "values": [{"measurement": "IC50", "result": "< 10", "unit": "µM"}]}, {"substance": "258 (Ac-ARRRRQ[dR]VAIIFK-NH2; not fully specified (residue 13); also: homodimer via Ida linker on Lys13 side chains) [compound 258]", "values": [{"measurement": "IC50", "result": "< 10", "unit": "µM"}]}, {"substance": "259 (Ac-ARRRR[dQ]RVAIIFK-NH2; not fully specified (residue 13); also: homodimer via Ida linker on Lys13 side chains) [compound 259]", "values": [{"measurement": "IC50", "result": "< 10", "unit": "µM"}]}, {"substance": "260 (Ac-ARRR[dR]QRVAIIFK-NH2; not fully specified (residue 13); also: homodimer via Ida linker on Lys13 side chains) [compound 260]", "values": [{"measurement": "IC50", "result": "< 10", "unit": "µM"}]}, {"substance": "261 (Ac-ARR[dR]RQRVAIIFK-NH2; not fully specified (residue 13); also: homodimer via Ida linker on Lys13 side chains) [compound 261]", "values": [{"measurement": "IC50", "result": "< 10", "unit": "µM"}]}, {"substance": "262 (Ac-AR[dR]RRQRVAIIFK-NH2; not fully specified (residue 13); also: homodimer via Ida linker on Lys13 side chains) [compound 262]", "values": [{"measurement": "IC50", "result": "< 10", "unit": "µM"}]}, {"substance": "263 (Ac-A[dR]RRRQRVAIIFK-NH2; not fully specified (residue 13); also: homodimer via Ida linker on Lys13 side chains) [compound 263]", "values": [{"measurement": "IC50", "result": "< 10", "unit": "µM"}]}, {"substance": "264 (Ac-[dA]RRRRQRVAIIFK-NH2; not fully specified (residue 13); also: homodimer via Ida linker on Lys13 side chains) [compound 264]", "values": [{"measurement": "IC50", "result": "< 10", "unit": "µM"}]}, {"substance": "265 (Ac-RRRRRQAVAIGFK; not fully specified (C-terminus); also: homodimer: side chain of Lys13 bound to an Ida linker) [compound 265]", "values": [{"measurement": "IC50", "result": "< 10", "unit": "µM"}]}, {"substance": "266 (Ac-RRRRRQAVAIWFK; not fully specified (C-terminus); also: homodimer: side chain of Lys13 bound to an Ida linker) [compound 266]", "values": [{"measurement": "IC50", "result": "< 10", "unit": "µM"}]}, {"substance": "268 (Ac-ARRRRQRVAIPFK-NH2; not fully specified (residue 13); also: homodimer: side chain of Lys13 bound to an Ida linker) [compound 268]", "values": [{"measurement": "IC50", "result": "> 30", "unit": "µM"}]}, {"substance": "269 (Ac-ARRRRQRVAIEFK-NH2; not fully specified (residue 13); also: homodimer: side chain of Lys13 bound to an Ida linker) [compound 269]", "values": [{"measurement": "IC50", "result": "10 to 30", "unit": "µM"}]}, {"substance": "270 (Ac-RRRRRQAVAINFK-NH2; not fully specified (residue 13); also: homodimer: Lys13 side chain bound to Ida linker) [compound 270]", "values": [{"measurement": "IC50", "result": "< 10", "unit": "µM"}]}, {"substance": "271 (Ac-ARRRRQRVAIYF; also: homodimer via Lys linker, Phe C-termini bound to the two Lys amino groups) [compound 271]", "values": [{"measurement": "IC50", "result": "< 10", "unit": "µM"}]}, {"substance": "272 (Ac-RARRRQAVAINFK-NH2; not fully specified (residue 13); also: homodimer via Ida linker on Lys13 side chain) [compound 272]", "values": [{"measurement": "IC50", "result": "< 10", "unit": "µM"}]}, {"substance": "273 (Ac-RARRRQAVAITFK-NH2; not fully specified (residue 13); also: homodimer: Lys13 side chain bound to Ida linker) [compound 273]", "values": [{"measurement": "IC50", "result": "< 10", "unit": "µM"}]}, {"substance": "274 (Ac-RARRRQAVAIWFK-NH2; not fully specified (residue 13); also: homodimer via Ida linker on Lys13 side chain) [compound 274]", "values": [{"measurement": "IC50", "result": "< 10", "unit": "µM"}]}, {"substance": "275 (Ac-RARRRQAVAIYFK-NH2; not fully specified (residue 13); also: homodimer via Ida linker on Lys13 side chain) [compound 275]", "values": [{"measurement": "IC50", "result": "< 10", "unit": "µM"}]}, {"substance": "276 (XRRRRQHVRIYFK; not fully specified; Xaa = Acylated Histidine; The side chain of Lysine at position 13 is covalently bound to an Ida linker forming a homodimer of residues 1 through 13.) [compound 276]", "values": [{"measurement": "IC50", "result": "< 10", "unit": "µM"}]}, {"substance": "277 (XRRRRQRVHIYFK; not fully specified; Xaa = Acylated Histidine; The side chain of Lysine at position 13 is covalently bound to an Ida linker forming a homodimer of residues 1 through 13.) [compound 277]", "values": [{"measurement": "IC50", "result": "< 10", "unit": "µM"}]}, {"substance": "278 (Ac-RRRRRQHVHIYFK-NH2; not fully specified (residue 13); also: homodimer: Lys13 side chain bound to Ida linker) [compound 278]", "values": [{"measurement": "IC50", "result": "< 10", "unit": "µM"}]}, {"substance": "280 (Ac-RRRRAQAVAIYFK-NH2; not fully specified (residue 13); also: homodimer via Ida linker on Lys13 side chain) [compound 280]", "values": [{"measurement": "IC50", "result": "< 10", "unit": "µM"}]}, {"substance": "281 (Ac-RRRRHQAVAIYFK-NH2; not fully specified (residue 13); also: homodimer via Ida linker on Lys13 side chain) [compound 281]", "values": [{"measurement": "IC50", "result": "< 10", "unit": "µM"}]}, {"substance": "282 (Ac-RRRRAQHVAIYFK-NH2; not fully specified (residue 13); also: homodimer: Lys13 side chain bound to Ida linker) [compound 282]", "values": [{"measurement": "IC50", "result": "< 10", "unit": "µM"}]}, {"substance": "283 (Ac-RRRRAQAVHIYFK-NH2; not fully specified (residue 13); also: homodimer: Lys13 side chain bound to Ida linker) [compound 283]", "values": [{"measurement": "IC50", "result": "< 10", "unit": "µM"}]}, {"substance": "284 (Ac-RRRRHQHVAIYFK-NH2; not fully specified (residue 13); also: homodimer: Lys13 side chain bound to Ida linker) [compound 284]", "values": [{"measurement": "IC50", "result": "< 10", "unit": "µM"}]}, {"substance": "285 (Ac-RRRRHQAVHIYFK-NH2; not fully specified (residue 13); also: homodimer via Ida linker on Lys13 side chain) [compound 285]", "values": [{"measurement": "IC50", "result": "< 10", "unit": "µM"}]}, {"substance": "286 (Ac-RRRRAQHVHIYFK-NH2; not fully specified (residue 13); also: homodimer via Ida linker on Lys13 side chain) [compound 286]", "values": [{"measurement": "IC50", "result": "< 10", "unit": "µM"}]}, {"substance": "287 (Ac-RRRRHQHVHIYFK-NH2; not fully specified (residue 13); also: homodimer via Ida linker on Lys13 side chain) [compound 287]", "values": [{"measurement": "IC50", "result": "< 10", "unit": "µM"}]}, {"substance": "298 (Ac-ARRRRQRVA[Aib]FK-NH2; not fully specified (residue 12); also: homodimer via Ida linker on Lys12 side chain) [compound 298]", "values": [{"measurement": "IC50", "result": "> 30", "unit": "µM"}]}, {"substance": "299 (Ac-RRRRRQAVRIGIGFK-NH2; also: homodimer: Lys15 side chain bound to Ida linker) [compound 299]", "values": [{"measurement": "IC50", "result": "< 10", "unit": "µM"}]}, {"substance": "300 (Ac-RRRRRQAVRIPIPFK-NH2; not fully specified (residue 15); also: homodimer: Lys15 side chain bound to Ida linker) [compound 300]", "values": [{"measurement": "IC50", "result": "10 to 30", "unit": "µM"}]}, {"substance": "301 (Ac-RRRRRQAVRITITFK-NH2; not fully specified (residue 15); also: homodimer: Lys15 side chain bound to Ida linker) [compound 301]", "values": [{"measurement": "IC50", "result": "< 10", "unit": "µM"}]}, {"substance": "302 (Ac-RRRRRQAVRIAIAFK(Ida)-NH2; also: homodimer via Ida linker on Lys15 side chain) [compound 302]", "values": [{"measurement": "IC50", "result": "< 10", "unit": "µM"}]}, {"substance": "303 (Ac-RRRRRQAVRIQIQFK(Ida)-NH2; also: homodimer via Ida linker on Lys15 side chain) [compound 303]", "values": [{"measurement": "IC50", "result": "< 10", "unit": "µM"}]}, {"substance": "304 (Ac-RRRRRQAVRIDIDFK(Ida)-NH2; also: homodimer via Ida linker on Lys15 side chain) [compound 304]", "values": [{"measurement": "IC50", "result": "< 10", "unit": "µM"}]}, {"substance": "305 (Ac-RRRRRQAVRIIK(Ida)VN; also: homodimer via Ida linker on Lys12 side chain) [compound 305]", "values": [{"measurement": "IC50", "result": "< 10", "unit": "µM"}]}, {"substance": "306 (Ac-RRRRRQAVRIK(Ida)FV; also: homodimer via Ida linker on Lys11 side chain) [compound 306]", "values": [{"measurement": "IC50", "result": "< 10", "unit": "µM"}]}, {"substance": "307 (Ac-RRRRRQAVRK(Ida)IFV; also: homodimer via Ida linker on Lys10 side chain) [compound 307]", "values": [{"measurement": "IC50", "result": "< 10", "unit": "µM"}]}, {"substance": "308 (Ac-RRRRRQAVK(Ida)IIFV; also: homodimer via Ida linker on Lys9 side chain) [compound 308]", "values": [{"measurement": "IC50", "result": "< 10", "unit": "µM"}]}, {"substance": "309 (Ac-RRRRRQAK(Ida)RIIFV; also: homodimer via Ida linker on Lys8 side chain) [compound 309]", "values": [{"measurement": "IC50", "result": "< 10", "unit": "µM"}]}, {"substance": "310 (Ac-RRRRRQK(Ida)VRIIFV; also: homodimer via Ida linker on Lys7 side chain) [compound 310]", "values": [{"measurement": "IC50", "result": "< 10", "unit": "µM"}]}, {"substance": "311 (Ac-RRRRRQAVRITITFK) [compound 311]", "values": [{"measurement": "IC50", "result": "< 10", "unit": "µM"}]}]}
